# Results published in ChEMBL document CHEMBL1201862, “PubChem BioAssay data set” (2004).
#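 Each compound was tested at five concentrations against cells in 96-well plates for 48 hours. Here, GI50 denotes the concentration required for 50% inhibition of growth.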 Activity calls are given as the source filed them. No stated cut-off is given here; in the data, active = GI50 up to about 1.1 µM and inactive = higher.
# Key:
# Assay in all cases: growth of human tumour cells (NCI), 48 h
# 786-0 = system: 786-0
# A498 = system: A498
# A549 = system: A549
# ACHN = system: ACHN
# BT-549 = system: BT-549
# CAKI-1 = system: CAKI-1
# CCRF-CEM = system: CCRF-CEM
# COLO 205 = system: COLO 205
# DU-145 = system: DU-145
# EKVX = system: EKVX
# HCC 2998 = system: HCC 2998
# HCT-116 = system: HCT-116
# HCT-15 = system: HCT-15
# HL-60 = system: HL-60
# HOP-62 = system: HOP-62
# HOP-92 = system: HOP-92
# HT-29 = system: HT-29
# Hs-578T = system: Hs-578T
# IGROV-1 = system: IGROV-1
# K562 = system: K562
# KM12 = system: KM12
# M14 = system: M14
# MCF7 = system: MCF7
# MDA-MB-231 = system: MDA-MB-231
# MDA-MB-435 = system: MDA-MB-435
# MOLT-4 = system: MOLT-4
# Malme-3M = system: Malme-3M
# NCI-H226 = system: NCI-H226
# NCI-H23 = system: NCI-H23
# NCI-H460 = system: NCI-H460
# NCI-H522 = system: NCI-H522
# NCI/ADR-RES = system: NCI/ADR-RES
# OVCAR-3 = system: OVCAR-3
# OVCAR-4 = system: OVCAR-4
# OVCAR-5 = system: OVCAR-5
# OVCAR-8 = system: OVCAR-8
# PC-3 = system: PC-3
# RXF 393 = system: RXF 393
# SF-268 = system: SF-268
# SF-295 = system: SF-295
# SF-539 = system: SF-539
# SK-MEL-28 = system: SK-MEL-28
# SK-MEL-2 = system: SK-MEL-2
# SK-MEL-5 = system: SK-MEL-5
# SK-OV-3 = system: SK-OV-3
# SN12C = system: SN12C
# SNB-19 = system: SNB-19
# SNB-75 = system: SNB-75
# SR = system: SR
# SW-620 = system: SW-620
# T47D = system: T47D
# TK-10 = system: TK-10
# U-251 = system: U-251
# UACC-257 = system: UACC-257
# UACC-62 = system: UACC-62
# UO-31 = system: UO-31
structure (smiles),measurement,setting,value
C1COC2SC3=C(SC(=C4SC5=C(SCCS5)S4)S3)SC2O1 (stereo unspecified),GI50,786-0,77.8 µM (inactive)
same,GI50,A498,> 100 µM (inactive)
same,GI50,A549,> 100 µM (inactive)
same,GI50,ACHN,> 100 µM (inactive)
same,GI50,BT-549,> 100 µM (inactive)
same,GI50,CAKI-1,> 100 µM (inactive)
same,GI50,CCRF-CEM,> 100 µM (inactive)
same,GI50,COLO 205,> 100 µM (inactive)
same,GI50,DU-145,> 100 µM (inactive)
same,GI50,EKVX,> 100 µM (inactive)
same,GI50,HCC 2998,> 100 µM (inactive)
same,GI50,HCT-116,> 100 µM (inactive)
same,GI50,HCT-15,8.49 µM
same,GI50,HL-60,33.9 µM (inactive)
same,GI50,HOP-62,> 100 µM (inactive)
same,GI50,HOP-92,> 100 µM (inactive)
same,GI50,HT-29,> 100 µM (inactive)
same,GI50,Hs-578T,80.9 µM (inactive)
same,GI50,IGROV-1,77.6 µM (inactive)
same,GI50,K562,73.1 µM (inactive)
same,GI50,KM12,17.4 µM (inactive)
same,GI50,M14,94 µM (inactive)
same,GI50,MCF7,> 100 µM (inactive)
same,GI50,MDA-MB-231,> 100 µM (inactive)
same,GI50,MDA-MB-435,4.07 µM (inactive)
same,GI50,MOLT-4,> 100 µM (inactive)
same,GI50,Malme-3M,13 µM (inactive)
same,GI50,NCI-H226,> 100 µM (inactive)
same,GI50,NCI-H23,> 100 µM (inactive)
same,GI50,NCI-H460,> 100 µM (inactive)
same,GI50,NCI-H522,31.8 µM (inactive)
same,GI50,NCI/ADR-RES,> 100 µM (inactive)
same,GI50,OVCAR-3,> 100 µM (inactive)
same,GI50,OVCAR-4,31.3 µM (inactive)
same,GI50,OVCAR-5,> 100 µM (inactive)
same,GI50,OVCAR-8,> 100 µM (inactive)
same,GI50,PC-3,> 100 µM (inactive)
same,GI50,RXF 393,> 100 µM (inactive)
same,GI50,SF-268,> 100 µM (inactive)
same,GI50,SF-295,36.7 µM (inactive)
same,GI50,SF-539,44 µM (inactive)
same,GI50,SK-MEL-28,> 100 µM (inactive)
same,GI50,SK-MEL-2,> 100 µM (inactive)
same,GI50,SK-MEL-5,80.2 µM (inactive)
same,GI50,SK-OV-3,72.3 µM (inactive)
same,GI50,SN12C,> 100 µM (inactive)
same,GI50,SNB-19,> 100 µM (inactive)
same,GI50,SNB-75,71.1 µM (inactive)
same,GI50,SR,3.68 µM (inactive)
same,GI50,SW-620,68.7 µM (inactive)
same,GI50,T47D,60.4 µM (inactive)
same,GI50,TK-10,> 100 µM (inactive)
same,GI50,U-251,> 100 µM (inactive)
same,GI50,UACC-257,> 100 µM (inactive)
same,GI50,UACC-62,22 µM (inactive)
same,GI50,UO-31,> 100 µM (inactive)
